Reference: patent US9012475B2, “Method for enhancing anti-tumor effect of a microtubule-targeting drug, and a method for treatment of tumor” (Taiho Pharmaceutical Co., Ltd., priority 2013, dated 2015)
“Also recorded” adds a separate entry of the source. Like-named read-outs stand apart in the source and are kept apart here.

Assays:
[1] = then 24 hours later MK-5108 orally twice per day over 2 days; cited from earlier work
human Aurora A = human Aurora A (Homo sapiens (Human), UniProt O14965); experiment: Measurement of Aurora A inhibitory activity (IMAP fluorescence polarization kinase assay); assay type: biochemical; conditions: ATP 5 μM, 25° C., 50 minutes
Description: (§1) The inhibitory activities of a test compound against Aurora A and Aurora B were measured according to the following method.
Complementary DNA of human Aurora A was fused with a histidine tag at the amino terminal, inserted into an expression vector and highly expressed in Escherichia coli BL21-CodonPlus (DE3)-RIL strain. After Escherichia coli was recovered and lysed, human Aurora A protein fused with a histidine tag was allowed to bind to a nickel chelate column and eluted by imidazole from the column. An active fraction was desalted by a desalting column to obtain purified enzyme.
In measuring inhibitory activity of the compound, first, the test compound was serially diluted by dimethylsulfoxide (DMSO). […] To the mixture, IMAP (registered trade mark) Progressive Binding Reagent diluted 500× with IMAP (registered trade mark) Progressive Binding Buffer A (manufactured by Molecular Devices) was added to terminate the kinase reaction. […] Based on the obtained fluorescence polarization degree, the amount of phosphorylation reaction was obtained.

human Aurora B = human Aurora B (Homo sapiens (Human), UniProt Q96GD4); experiment: Measurement of Aurora B kinase activity; assay type: biochemical; conditions: ATP 40 μM, 60 minutes
Description: as §1
The concentration of the compound at which 50% of the phosphorylation reaction was suppressed was defined as IC50 value (nM).

[2] = Evaluation of oral absorption property; assay type: in vivo, BALE/cA mice; conditions: oral administration in 0.5% HPMC, plasma 0.5-6 hours, LCMS
Description: A test compound was suspended or dissolved in 0.5% HPMC and orally administered to BALE/cA mice. At the time points of 0.5, 1, 2, 4 and 6 hours after oral administration, blood was sampled from the back of the eye to obtain blood plasma. The concentration of the compound in the obtained blood plasma was measured by LCMS and evaluated for oral absorption property.

[3] = test system: human-derived uterus cancer cell strain HeLa-luc; conditions: for number of CR cases: 5 rats
Description: Cells (1×10^7) of human-derived uterus cancer cell strain HeLa-luc (manufactured by PerkinElmer Co., Ltd.) having a luciferase gene introduced therein were subcutaneously grafted to the right abdomens of nude rats. At the time the volume of a tumor developed from grafted cells reached about 200 mm^3, the rats were divided into groups each consisting of 5 rats according to stratified randomization such that each group had almost the same tumor volume. […] To Group 2 and 3, paclitaxel was administered and, on the next day, Compound 1 (30 mg/kg) was orally administered twice per day for one day or 4 days (sequential administration, see FIG. 1 (A), Sequential treatment). To the rats of Group 4 and 5, paclitaxel was administered and, on the same day, Compound 1 (30 mg/kg) was orally administered twice per day for 2 days or 4 days (concurrent administration, see FIG. 1 (B), Concurrent treatment). Compound 1 was suspended or dissolved in 0.5% (w/v) hydroxypropyl methyl cellulose (HPMC). Paclitaxel was dissolved in Cremophor EL and anhydrous ethanol, diluted with physiological saline so as to obtain a predetermined concentration and put in use.
The presence or absence of a therapeutic effect was determined by measuring the major axis and minor axis of a tumor with time and obtaining a tumor volume (TV), relative tumor volume (RTV) and T/C (%) value (average relative tumor volume ratio of the treatment group to the control group) on day 10 after initiation of administration according to the following expressions. Tumor volume (TV)={(major axis)×(minor axis)^2}/2 Relative tumor volume (RTVn) on measurement day (n)=TVn/TV1 T/C(%)={(average RTVn of treatment group)/(average RTVn of control group)}×100
TV1 represents tumor volume at the administration initiation time
Furthermore, an individual in which a tumor disappeared was specified as CR (complete remission/complete response) and the number of cases was obtained.

[4] = test system: human-derived lung cancer cell strain NCI-H460 (H460); experiment: Schedule of administration in combination with paclitaxel, NCI-H460 subcutaneous graft; assay type: in vivo
Description: The study was performed according to the method in Example 1. Cells (1×10^7) of human-derived lung cancer cell strain NCI-H460 (H460) were subcutaneously grafted to right abdomens of nude mice. […] Group 1 was defined as a control group, Group 2 and 3 were defined as a paclitaxel single administration group and Compound 1 single administration group, respectively. Group 4 and 5 were defined as an administration group in combination with paclitaxel and Compound 1. Paclitaxel was intravenously administered in a dose of 60 mg/kg twice, i.e., day 1 and day 8 (Group 2, 4 and 5). In Group 3 and 5, Compound 1 was orally administered twice per day in a dose of 60 mg/kg, for 4 days from the next day of paclitaxel administration and for 4 days from day 9 of paclitaxel administration. In Group 4, Compound 1 was orally administered twice per day in a dose of 60 mg/kg from the next day of paclitaxel administration for 2 days and from day 9 for 2 days. In Group 3, 4 and 5, the dose per day of Compound 1 was 120 mg/kg/day. […]
Furthermore, the body weights of mice were measured with time and a body weight change rate (BWC) was computationally obtained according to the following expression. […]

[5] = test system: human-derived lung cancer cell strain NCI-H460 (H460); experiment: Schedule of administration in combination with docetaxel (Example 2 (2)); assay type: in vivo, nude mice
Description: The study was performed according to the method in Example 1, except that docetaxel was used in place of paclitaxel. Furthermore, administration of Compound 1 was initiated from the administration day of docetaxel. Group 1 was defined as a control group. Docetaxel was dissolved in anhydrous ethanol and Tween 80 and thereafter diluted with 5% glucose injection liquid and intravenously administered in a dose of 30 mg/kg twice, i.e., on day 1 and day 8 (Group 2 and 4). In Group 3 and 4, Compound 1 was orally administered twice per day in a dose of 60 mg/kg, from the administration day of docetaxel for 4 days and from day 8 of docetaxel administration for 4 days.
In Group 3 and 4, the dose of Compound 1 per day was 120 mg/kg/day. Note that, in FIG. 2 (B), Group 1 is represented by Control, Group 2 by Docetaxel alone, Group 3 by Compound 1 alone and Group 4 by Combo (4 days).

Chain of human Aurora A (O14965 whole entry): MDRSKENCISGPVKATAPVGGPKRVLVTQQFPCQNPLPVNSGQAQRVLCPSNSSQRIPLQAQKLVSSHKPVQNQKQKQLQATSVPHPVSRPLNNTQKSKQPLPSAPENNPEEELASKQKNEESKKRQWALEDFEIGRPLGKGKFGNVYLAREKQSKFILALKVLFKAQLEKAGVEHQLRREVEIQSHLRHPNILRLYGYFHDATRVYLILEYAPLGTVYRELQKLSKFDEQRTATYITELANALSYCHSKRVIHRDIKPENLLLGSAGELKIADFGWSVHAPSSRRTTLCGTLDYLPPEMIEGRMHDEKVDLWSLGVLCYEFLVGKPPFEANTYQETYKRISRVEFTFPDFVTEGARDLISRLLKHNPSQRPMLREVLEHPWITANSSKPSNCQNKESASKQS
Chain of human Aurora B (Q96GD4 whole entry): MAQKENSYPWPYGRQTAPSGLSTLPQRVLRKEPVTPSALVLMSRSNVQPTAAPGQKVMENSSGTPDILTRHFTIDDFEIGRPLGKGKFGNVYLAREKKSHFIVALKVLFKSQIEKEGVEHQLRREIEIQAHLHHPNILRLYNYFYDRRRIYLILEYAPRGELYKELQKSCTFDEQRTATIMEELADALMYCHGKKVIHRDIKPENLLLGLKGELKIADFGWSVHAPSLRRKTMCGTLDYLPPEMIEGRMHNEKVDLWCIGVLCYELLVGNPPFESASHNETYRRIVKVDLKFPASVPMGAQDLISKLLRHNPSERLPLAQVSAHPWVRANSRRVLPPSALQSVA
Chain of human Aurora B (Q9NQS7 803-916 partner): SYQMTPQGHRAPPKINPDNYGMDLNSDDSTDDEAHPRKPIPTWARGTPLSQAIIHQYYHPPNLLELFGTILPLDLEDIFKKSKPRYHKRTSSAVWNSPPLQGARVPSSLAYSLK

Row | SMILES | antitumor effect in combination with docetaxel [1] | IC50 (human Aurora A) | IC50 (human Aurora B) | oral absorption property (concentration in blood plasma) [2] | number of CR cases ([3]; Group 2: paclitaxel 10 mg/kg iv, from next day Compound 1 30 mg/kg po twice per day for one day (sequential)) | number of CR cases ([3]; Group 3: paclitaxel 10 mg/kg iv, from next day Compound 1 30 mg/kg po twice per day for 4 days (sequential)) | toxicity / side effect ([3]; Group 3 and 5: paclitaxel 10 mg/kg iv plus Compound 1 30 mg/kg po bid for 4 days) | number of CR cases ([3]; Group 4: paclitaxel 10 mg/kg iv, from same day Compound 1 30 mg/kg po twice per day for 2 days (concurrent)) | number of CR cases ([3]; Group 5: paclitaxel 10 mg/kg iv, from same day Compound 1 30 mg/kg po twice per day for 4 days (concurrent)) | toxicity / side effect ([4]; Group 4 and 5: paclitaxel 60 mg/kg iv plus Compound 1 60 mg/kg po bid for 2 or 4 days per cycle) | tumor volume, Combo (4 days) versus Combo (2 days) ([4]; paclitaxel 60 mg/kg iv day 1 and 8, Compound 1 60 mg/kg po bid for 4 days (Group 5) vs 2 days (Group 4) per 7-day cycle) | toxicity / side effect ([5]; Group 4: docetaxel 30 mg/kg iv plus Compound 1 60 mg/kg po bid for 4 days per cycle) | antitumor effect (tumor volume), Combo (4 days) ([5]; docetaxel 30 mg/kg iv day 1 and 8, Compound 1 60 mg/kg po bid for 4 days from day 1 and day 8)
1 | O=C(O)[C@]1(Cc2cccc(Nc3nccs3)n2)CC[C@@H](Oc2cccc(Cl)c2F)CC1 [MK-5108] | enhancement of an antitumor effect is confirmed |  |  |  |  |  |  |  |  |  |  |  | 
2 | Cc1cc(Nc2nc(CC3(C(=O)O)CCN(C(=O)c4cccc(Cl)c4Cl)CC3)ccc2F)n[nH]1 [Production Example 1, 1-(2,3-dichlorobenzoyl)-4-((5-fluoro-6-(5-methyl-1H-pyrazol-3-ylamino)pyridin-2-yl)methyl)piperidine-4-carboxylic acid] |  | 0.4 nM | 140 nM | satisfactory oral absorption property | no CR cases | 2 | no serious toxicity such as death was observed | one | 4 | no significant toxicity such as death was observed | smaller than that of Group 4; also recorded: stronger antitumor enhancing effect | no significant toxicity such as death was observed | an antitumor effect is exerted
